Test results: PubChem BioAssay AID434987 (Southern Research Specialized Biocontainment Screening …, 2010)
The source made the active and inactive calls. How the calls were made is not given here.

Test system: M. tuberculosis H37Rv growth inhibition with meropenem
Experiment: dose response, H37Rv, with and without meropenem (AID 434987);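 further: growth over 7 days at 37 °C before Alamar Blue read on day 9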
[1] = M. tuberculosis H37Rv growth inhibition, measured here: IC50 without meropenem
[2] = M. tuberculosis H37Rv growth inhibition, measured here: IC90 without meropenem
[3] = measured here: IC90 with meropenem

SMILES | IC50 | IC50 [1] [µM] | IC90 [2] [µM] | IC90 [3] [µM]
CN(C)CCCN(C(=O)/C=C/c1cccs1)c1nc2ccc(F)cc2s1 | 45.2 µM (inactive) | 45.8 | 49.2 | 48.4
Cc1ccc(C(=O)Nc2c(C)cc(C)c3cccnc23)cc1 | 2.39 µM | 10.3 | > 50 | 10.5
Clc1ccc(CSc2ccc(-c3cccnc3)nn2)cc1 | 40.1 µM | > 100 | > 100 | > 100
CC(C)(C)c1ccc(C(=O)Oc2ccc3c(c2)OCC3=O)cc1 | 8.64 µM | > 100 | > 100 | 29.4
CCC(CC)Nc1ccc(C(CC(N)=O)NC(=O)c2ccccc2)cc1[N+](=O)[O-] (stereo not drawn) | > 100 µM (inactive) | > 100 | > 100 | > 100
CCCCN(CCCC)C(=S)N/N=C/c1c(C)[nH]n(-c2ccccc2)c1=O | > 100 µM (inactive) | > 100 | > 100 | > 100
CC1(C)CC(=O)c2cc(C(=O)NCc3ccco3)c(=O)n(-c3ccccc3)c2C1 | > 100 µM (inactive) | > 100 | > 100 | > 100
Cc1ccsc1/C=N/Nc1ncc(Cl)cc1Cl | 8.81 µM | 50.9 | > 100 | > 100
O=c1c(N=Nc2ccc(O)cc2)c(-c2ccccc2)[nH]n1-c1ccc([N+](=O)[O-])cc1 | > 100 µM (inactive) | > 100 | > 100 | > 100
CCOC(=O)COc1nc(-c2ccc(Cl)cc2)cc(-c2ccco2)c1C#N | 3.82 µM | > 100 | > 100 | > 100
CCCc1nc2oc3c(OCC)ncnc3c2c2c1COC(C)(C)C2 | 72.5 µM (inactive) | > 100 | > 100 | > 100
O=C(CN1CCN(c2ccccn2)CC1)Nc1ccc(Cl)c(C(F)(F)F)c1 | 58.5 µM (inactive) | 90.1 | > 100 | > 100
CC1CCc2c(sc(NC(=O)CCCn3cnc([N+](=O)[O-])n3)c2C(N)=O)C1 (stereo not drawn) | 12.8 µM | 32.7 | > 100 | 90.4
Cc1nn(Cc2ccc(Cl)cc2)c(C)c1NC(=O)CSc1nc2c(c(C(F)(F)F)n1)CCc1ccccc1-2 | > 100 µM (inactive) | > 100 | > 100 | > 100
COc1ccccc1NC(=O)c1cnc(Nc2ccccc2OC)c2ccccc12 | 37.2 µM | > 100 | > 100 | > 100
CCOC(=O)c1[nH]c2ccccc2c1NC(=O)Nc1ccc(OC)cc1 | > 100 µM (inactive) | > 100 | > 100 | > 100
N#C/C(C(=O)NCc1ccco1)=C1/SC=C(c2ccccc2)N1c1ccccc1 | > 100 µM (inactive) | > 100 | > 100 | > 100
Cc1onc(-c2ccccc2Cl)c1C(=O)NCc1ccc2c(c1)cc(C)n2C | 16.6 µM (inactive) | 39 | 58.5 | 29.4
Cc1ccc(C)c(NC(=O)C2Cc3ccccc3CN2C(=O)OCc2ccccc2)c1 (stereo not drawn) | 71.3 µM (inactive) | 91.3 | > 100 | > 100

SMILES | IC50 | IC50 [1] [µM] | IC90 [2] [µM] | IC90 [3] [µM]
CCCCOc1ccccc1NC(=O)c1ccco1 | > 100 µM (inactive) | > 100 | > 100 | > 100
CC1(C)CCN2CCC(C)(C)c3c(O)ccc1c32 | 34.7 µM (inactive) | 47.1 | 53 | 49.3
Cc1cccc(N2CCN(CC3CCCCC3)CC2)c1C | 48.5 µM (inactive) | 90.5 | > 100 | 53.2
O=C1c2ccccc2N2C(=O)c3ccccc3C2N1O (stereo not drawn) | 13.9 µM | 39.3 | > 100 | 56.4
Cc1c(-c2ccncc2)oc2ccc(Br)cc2c1=O | > 100 µM (inactive) | > 100 | > 100 | > 100
CCC(C)NCCOCCOc1ccc(Cl)c2ccccc12 (stereo not drawn) | 32 µM (inactive) | 38.3 | 53.3 | 50.7
Cn1nnnc1SCC(=O)Nc1ccccc1[N+](=O)[O-] | 28.8 µM | 71.9 | > 100 | > 100
N#Cc1cc2c(nc1SCC(=O)Nc1sc3c(c1C#N)CCC3)CCCC2 | > 100 µM (inactive) | > 100 | > 100 | > 100
CCN(CC)S(=O)(=O)c1ccc(N/N=C(\C)c2ccc(OC)cc2O)nc1 | 1.07 µM | 5.71 | 11.3 | 10.4
CCn1cc(C(=O)O)c(=O)c2cc(F)c(N3CCN(C(=S)NC(=O)c4ccccc4C)CC3)cc21 | 10.9 µM (inactive) | 19.5 | 28.3 | 16
COc1ccccc1C(c1c(N)n(C)c(=O)n(C)c1=O)C(C)[N+](=O)[O-] (stereo not drawn) | 11.2 µM (inactive) | 21.4 | 28.9 | 18
Cc1cc(NC(=O)CSc2nc(C(C)C)nc3sc4c(c23)CCCC4)no1 | > 100 µM (inactive) | > 100 | > 100 | > 100
S=c1nccc(-c2ccc3c(c2)CCO3)[nH]1 | > 100 µM (inactive) | > 100 | > 100 | > 100
CCN(CC(=O)Nc1ccccc1OC)C(=O)c1cc(S(=O)(=O)N2CCCCCC2)ccc1OC | > 100 µM (inactive) | > 100 | > 100 | > 100
COc1cc(/C=C/c2ccc3cccc([N+](=O)[O-])c3n2)ccc1OCC(=O)O | 6.21 µM | 24.9 | 62.5 | 12
O=C(N/N=C/c1ccc(-c2cccc(C(F)(F)F)c2)o1)c1ccccc1O | 32.8 µM | > 100 | > 100 | > 100
COc1ccc(-c2cc(-c3ccc(OC)cc3)nc(-c3ccc4c(c3)NC(=O)CO4)c2)cc1 | > 100 µM (inactive) | > 100 | > 100 | > 100
O=C1CC(Nc2ccc(N3CCOCC3)cc2)C(=O)N1C1CCCCC1 (stereo not drawn) | > 100 µM (inactive) | > 100 | > 100 | > 100
CCOC(=O)c1sc(NC(=O)CN2CCN(c3ccc(OC)cc3)CC2)nc1C | 68.2 µM (inactive) | 98.9 | > 100 | > 100

SMILES | IC50 | IC50 [1] [µM] | IC90 [2] [µM] | IC90 [3] [µM]
COc1ccc2cc(C3=CCCCC3)ncc2c1 | 74.8 µM (inactive) | > 100 | > 100 | > 100
O=C(CN(Cc1ccco1)C(=O)c1cccc(Cl)c1)Nc1c(Cl)cc(Cl)cc1Cl | 48.3 µM (inactive) | > 100 | > 100 | > 100
Cc1ccc(C)c(SCc2noc(C(=O)NCC3CCCO3)c2C(=O)O)c1 (stereo not drawn) | 44.3 µM (inactive) | 50.7 | > 100 | 48
COC(=O)c1ccc(/C=N\NC(=O)c2ccc(C)cc2Cl)cc1 | > 100 µM (inactive) | > 100 | > 100 | > 100
CNc1ccccc1NC(=O)C1CCCN1C(=O)OCc1ccccc1 (stereo not drawn) | > 100 µM (inactive) | > 100 | > 100 | > 100
CC(C)(C)c1ccc(OCC(=O)N/N=C/c2cc(Br)ccc2OC(=O)c2ccco2)cc1 | 82.7 µM (inactive) | > 100 | > 100 | > 100
CC1CCCN(S(=O)(=O)c2ccc(C(=O)Nc3nnc(-c4ccncc4)o3)cc2)C1 (stereo not drawn) | 32.4 µM (inactive) | 49.3 | 78.1 | 64.8
CCc1ccc(NC(=S)Nc2ccc3[nH]c(=O)[nH]c3c2)cc1 | > 100 µM (inactive) | > 100 | > 100 | > 100
Cc1ccc(S(=O)(=O)NCCCCCC(=O)Nc2ccccn2)cc1 | > 100 µM (inactive) | > 100 | > 100 | > 100
COc1ccc2nc(SCc3cccc(C)c3)nc(C)c2c1 | > 100 µM (inactive) | > 100 | > 100 | > 100
COCCNC(C(=O)Nc1ccc(C)cc1[N+](=O)[O-])c1ccccc1 (stereo not drawn) | 17.2 µM | 49.1 | > 100 | > 100
CCOc1ccc(/C=N/NC(=O)c2ccccc2O)cc1CN1CC2CC(C1)c1cccc(=O)n1C2 (stereo not drawn) | 79.8 µM (inactive) | 94.9 | > 100 | > 100
CC1CCCC(NC(=O)COC(=O)c2cccc(NS(=O)(=O)/C=C/c3ccccc3)c2)C1C (stereo not drawn) | > 100 µM (inactive) | > 100 | > 100 | > 100
COC(=O)c1c(C)n(-c2ccccc2)c2ccc(O)cc12 | 1.53 µM | > 100 | > 100 | > 100
O=C(CCCCCN1C(=O)c2cccc([N+](=O)[O-])c2C1=O)Nc1ccccc1F | 10.2 µM | > 100 | > 100 | 44.1
COc1cc(C(=O)Oc2cccnc2)cc(OC)c1OC | 5.8 µM | 48.4 | > 100 | 13.6
COc1ccc(OC)c(NC(=O)CSC2=C(C#N)C(c3ccco3)C3=C(CCCC3=O)N2)c1 (stereo not drawn) | 70.4 µM (inactive) | 94.2 | > 100 | > 100
CCOCC(=O)N1CCN(c2ccc(F)cc2)CC1 | 33.8 µM | 84.1 | > 100 | > 100
CCOc1cc(N2CCOCC2)c(OCC)cc1NC(=O)COc1cccc(CC)c1 | > 100 µM (inactive) | > 100 | > 100 | > 100
